{
  "source": "patent US5583142A",
  "about": "“Analgesic and nootropic drugs” (priority 1992, dated 1996)",
  "key": {"[1]": {"test": "mouse rota-rod test (16 r.p.m.)", "from_the_text": "All products tested to detect their antinociceptive activity had been previously tested by the rota-rod test to determine their maximum utilizable dose in analgesic tests. In fact, by this test it is possible to determine the highest dose of drug not impairing the normal performance of animals in a test that simultaneously evaluates motor coordination, equilibrium, resistance to fatigue, and muscle strength. This test is meant to evaluate the capability of mice to stay balanced on a rotating rod [cf. Vaught et al., Neuropharmacology, 24 (3) 211-216 (1985)].\nThe calculated doses were those used in the two analgesic tests on mice."}, "[2]": {"assay_type": "in vivo, mouse", "experimental": "(§1) The analgesic action was detected in mouse, rat, guinea pig and dog. The mouse was subjected to hot plate and writhing tests; the rat to tail-flick and paw-pressure tests; the guinea pig to paw-pressure test only; the dog to the test described by Vainio et al. [J. Vet. Pharmacol. Ther., 12, 225-231 (1989)] using an electric stimulation. Consequently, the claimed compounds were tested with pain being induced by stimuli of different nature: thermal (hot plate and tail flick), chemical (writhing by acetic acid), mechanical (paw pressure) and electrical (cutaneous stimulation).\n(§2) Potency, efficacy and toxicity of SM21, PG9 and SM32 in comparison with\n(§3) four principal reference analgesic drugs tested in mouse. As analgesic"}, "in vivo": {"test": "in vivo", "conditions": "mouse, sc", "from_the_text": "as §2, §3"}, "[3]": {"test": "mouse acetic acid writhing test", "assay_type": "in vivo", "experimental": "as §1\nThe claimed molecules, chosen as examples, were also assayed in mice by the writhing test (Table 4). The test is meant to evaluate the products capability to prevent mice writhes ensuing abdominal pains caused by i.p. injection of a 0.6% aqueous solution of acetic acid.\nAcetic acid solution = 0.6% v/v."}, "rat paw-pressure test": {"test": "rat paw-pressure test", "assay_type": "in vivo", "conditions": "for paw-pressure: 20 mg/kg i.p.", "experimental": "as §1\n(§4) As already mentioned, the claimed products were assayed also in rat by the paw-pressure and tail-flick tests.\n(§5) Both tests were carried out with the max. doses not impairing the rats normal behaviour. […] The painful stimulus utilized in the paw-pressure test involved the animal consciousness to a much greater extent than the stimulus used in the tail-flick test, in fact, the type and anatomic localization of the latter mainly involved a spinal response.\n(§6) Both tests on rats were carried out with the max. doses not altering the behaviour of the treated animals."}, "rat tail-flick test": {"test": "rat tail-flick test", "assay_type": "in vivo", "conditions": "for tail-flick: 20 mg/kg i.p.", "experimental": "as §1, §4, §5, §6\nThe test was performed using th"}, "[4]": {"test": "guinea-pig paw-pressure test", "assay_type": "in vivo", "conditions": "for paw-pressure: guinea-pig, 20 mg/kg i.p.", "experimental": "as §1\nEffect of SM21 and PG9 in guineapig pawpressure test. *P < 0.01; P < 0.0\nin comparison with saline controls. The number of guineapig is in […]"}, "[5]": {"system": "presynaptic muscarinic autoreceptor", "conditions": "cited from earlier work"}},
  "note": "Where “and” joins values, the source holds several entries; their conditions need not be identical. Equal entries are not always repeated. Where two headings read alike, the source gives them in different places.",
  "data": [
    {"smiles": "CC(C(=O)O[C@H]1C[C@H]2CC[C@@H](C1)N2C)c1ccc(Br)cc1", "note": "(stereo partly drawn) [PG-9, 3α-Tropanyl 2-(p-bromophenyl)-propionate]", "values": [
      {"measurement": "rota-rod performance (number of falls in 30 s)", "setting": "[1]; 40 mg/kg s.c., 15 min after treatment", "value": "1.2 ± 0.5", "unit": "falls in 30 s"},
      {"measurement": "rota-rod performance (number of falls in 30 s)", "setting": "[1]; 40 mg/kg s.c., 30 min after treatment", "value": "0.8 ± 0.4", "unit": "falls in 30 s"},
      {"measurement": "rota-rod performance (number of falls in 30 s)", "setting": "[1]; 40 mg/kg s.c., 45 min after treatment", "value": "1.3 ± 0.5", "unit": "falls in 30 s"},
      {"measurement": "rota-rod performance (number of falls in 30 s)", "setting": "[1]; 45 mg/kg s.c., 15 min after treatment", "value": "2.4 ± 0.8", "unit": "falls in 30 s"},
      {"measurement": "rota-rod performance (number of falls in 30 s)", "setting": "[1]; 45 mg/kg s.c., 30 min after treatment", "value": "1.3 ± 0.5", "unit": "falls in 30 s"},
      {"measurement": "rota-rod performance (number of falls in 30 s)", "setting": "[1]; 45 mg/kg s.c., 45 min after treatment", "value": "0.8 ± 0.4", "unit": "falls in 30 s"},
      {"measurement": "rota-rod performance (number of falls in 30 s)", "setting": "[1]; 50 mg/kg s.c., 15 min after treatment", "value": "2.2 ± 0.6", "unit": "falls in 30 s"},
      {"measurement": "rota-rod performance (number of falls in 30 s)", "setting": "[1]; 50 mg/kg s.c., 30 min after treatment", "value": "2.7 ± 0.6", "unit": "falls in 30 s"},
      {"measurement": "rota-rod performance (number of falls in 30 s)", "setting": "[1]; 50 mg/kg s.c., 45 min after treatment", "value": "2.8 ± 0.4", "unit": "falls in 30 s"},
      {"measurement": "ANALGESIC ACTIVITY (degree of analgesia, latency on hot plate)", "setting": "[2]; max. dose not affecting mice behaviour", "value": "++++ (Latency above 35\" ++++-)"},
      {"measurement": "analgesic activity in mouse, in words", "setting": "[2]; mouse", "value": "active in mouse"},
      {"measurement": "analgesic effect (AUC up to 45 min) compared with reference analgesics", "setting": "[2]; mouse hot plate, FIG. 5, always (s.c. and i.p.)", "value": "always more active than all reference analgesics including morphine"},
      {"measurement": "Efficacy as analgesic (Morphine = 100), AUC (Area Under Curve)", "setting": "[2]; mouse, in vivo", "value": 123},
      {"measurement": "Efficacy as analgesic (Morphine = 100), M.E. (Maximum Analgesic Effect)", "setting": "[2]; mouse, in vivo", "value": 106},
      {"measurement": "hot-plate latency", "setting": "[2]; mouse, 40 mg/kg i.p., 15 min after treatment", "value": "42.5 ± 2.5", "unit": "s"},
      {"measurement": "hot-plate latency", "setting": "[2]; mouse, 40 mg/kg i.p., 30 min after treatment", "value": "39.7 ± 2.1", "unit": "s"},
      {"measurement": "hot-plate latency", "setting": "[2]; mouse, 40 mg/kg i.p., 45 min after treatment", "value": "26.7 ± 3.5", "unit": "s"},
      {"measurement": "hot-plate latency", "setting": "[2]; mouse, 40 mg/kg s.c., 15 min after treatment", "value": "39.3 ± 3.4", "unit": "s"},
      {"measurement": "hot-plate latency", "setting": "[2]; mouse, 40 mg/kg s.c., 30 min after treatment", "value": "35.1 ± 2.8", "unit": "s"},
      {"measurement": "hot-plate latency", "setting": "[2]; mouse, 40 mg/kg s.c., 45 min after treatment", "value": "33.3 ± 2.6", "unit": "s"},
      {"measurement": "LD50", "setting": "in vivo", "value": 373, "unit": "µmol/kg"},
      {"measurement": "efficacy in writhing test, in words", "setting": "[3]; mouse", "value": "less efficacious than ketorolac, are more efficacious than morphine"},
      {"measurement": "number of writhes", "setting": "[3]; mouse, 40 mg/kg s.c.", "value": "6.1 ± 1.6"},
      {"measurement": "Efficacy as analgesic (Morphine = 100)", "setting": "[3]; mouse, writhing, 40 mg/kg s.c.", "value": 110},
      {"measurement": "percent inhibition", "setting": "[3]; mouse, writhing, 40 mg/kg s.c.", "value": 82.2, "unit": "%"},
      {"measurement": "ED50", "setting": "[3]; sc, mouse writhing", "value": "16.3 mg/kg and 34.8 µmol/kg"},
      {"measurement": "activity in paw-pressure test, in words", "setting": "rat paw-pressure test", "value": "inactive in rat"},
      {"measurement": "paw-pressure", "setting": "rat paw-pressure test; 15 min after treatment", "value": "62.2 ± 6.0", "unit": "g"},
      {"measurement": "paw-pressure", "setting": "rat paw-pressure test; 30 min after treatment", "value": "62.4 ± 4.8", "unit": "g"},
      {"measurement": "paw-pressure", "setting": "rat paw-pressure test; 45 min after treatment", "value": "62.8 ± 4.2", "unit": "g"},
      {"measurement": "activity in tail-flick test, in words", "setting": "rat tail-flick test", "value": "inactive"},
      {"measurement": "tail-flick", "setting": "rat tail-flick test; 15 min after treatment", "value": "3.3 ± 0.2", "unit": "s"},
      {"measurement": "tail-flick", "setting": "rat tail-flick test; 30 min after treatment", "value": "2.9 ± 0.4", "unit": "s"},
      {"measurement": "tail-flick", "setting": "rat tail-flick test; 45 min after treatment", "value": "3.0 ± 0.3", "unit": "s"},
      {"measurement": "analgesic activity in guinea pig, in words", "setting": "[4]; guinea pig", "value": "active in guinea pig"},
      {"measurement": "paw-pressure", "setting": "[4]; 15 min after treatment", "value": "94.6 ± 4.4", "unit": "g"},
      {"measurement": "paw-pressure", "setting": "[4]; 30 min after treatment", "value": "83.0 ± 6.8", "unit": "g"},
      {"measurement": "paw-pressure", "setting": "[4]; 45 min after treatment", "value": "42.8 ± 5.6", "unit": "g"}
    ]},
    {"smiles": "CCN(CC)CCOC(=O)c1ccc(N)cc1", "note": "[procaine]", "values": [
      {"measurement": "selectivity and efficacy as antagonists of the presynaptic muscarinic autoreceptor", "setting": "[5]", "value": "little selective as well as little efficacious"}
    ]}
  ]
}
